Reference: publication PMC4336331, “Novel Receptor-Derived Cyclopeptides to Treat Heart Failure Caused by Anti-β1-Adrenoceptor Antibodies in a Human-Analogous Rat Model” (PLoS ONE, 2015)
Peptide text beside a SMILES is read from it.

Tests used:
[1] = Plasma half-life in vivo of 123I-(tyrosine)-labeled peptides; conditions: 123I-(tyrosine)-labeled peptide, 1.4 to 1.8 MBq/animal injected; central venous blood samples gamma-counted 2, 4, 6, 8, 10, 20, 30, 60 min after injection; difference n.s.
anti-β1EC2-antibodies = assay: Free anti-β1EC2-titers by ELISA, prevention-study; format: in vivo, Lewis/CrlBR rats; conditions: 1.0 mg/kg i.v. monthly
Method: For treatment groups (a), (b), and (f) in total n = 38 non-immunised rats were injected with 0.9% NaCl and treated in parallel (“negative” controls). Blood was taken at regular intervals; rat-IgG was prepared by caprylic acid precipitation and assayed for reactivity by ELISA or competition-ELISA against linear peptides corresponding to the human β1EC2-sequence (AA199-223)[12], and by immuno-fluorescence microscopy with human embryonic kidney (HEK)293 cells stably expressing 0.4 pmol β1-AR/mg membrane protein (HEKβ1-cells). Specificity of the anti-β1EC2-abs was confirmed by co-localisation experiments using previously characterised N-terminal rabbit anti-β1-abs. Bound antibodies were detected with appropriate species-specific secondary antibodies (Dianova, Hamburg, Germany; anti-rabbit-, or anti-rat-Fab2, conjugated to Cy2 or Cy3). Calibrated rat-IgG (Dianova) served to quantify specific IgG-antibodies.
Fig 2 Study protocol and cardioprotection with cyclic β1EC2-peptides. Flow charts of the (A) prevention- and (E) therapy-study with β1EC2-mimicking peptides in the rat. Numbers given refer to animal-numbers in the respective study-groups. Immunisation with β1EC2/GST-FP (or 0.9% NaCl for controls) was started at t = 0. […] Titers were measured before and 24h after CP-injection. […] For better readability error-bars are not shown in the graph. […]

GRK2 and GRK5 = assay: qRT-PCR of cardiac GRK expression, therapy-study; format: in vivo, Lewis/CrlBR rats; conditions: qRT-PCR normalised to GAPDH (Fig. 4C)
heart rate = assay: Bisoprolol titration pre-experiments, heart rate; format: in vivo, Lewis/CrlBR rats
Method: In brief, n = 76 two months old Lewis/CrlBR rats were either s.c. immunised with 50 μg β1EC2/GST-FP, or n = 38 rats were control-injected with 0.9% NaCl (t = 0). To maintain high anti-β1EC2-titers, all immunised rats were boosted with β1EC2/GST-FP (or 0.9% NaCl) every month over 20 months as previously described. Application of the different linear or cyclic β1-AR peptides (corresponding to the primary AA-sequence of either the first (β1EC1) or the 2nd extra-cellular β1-AR loop (β1EC2)) or the β1-receptor blocker bisoprolol was initiated either 6 weeks after the 1st immunisation (i.e. 15 days after the 1st boost, prevention-study), or 8.5 months after the 1st immunisation (therapy-study).

Row | SMILES | plasma-half life in vivo (t ½) [1] [min] | reduction in free anti-β1EC2-abs vs. initial values (anti-β1EC2-antibodies; after 5 injections, ELISA (Fig. 2B)) [%] | anti-β1EC2-titers in % of the initial values (anti-β1EC2-antibodies; after 9–10 injections, despite monthly antigen-boosts (Fig. 2B)) [%] | upregulation of GRK2 and GRK5, in words (GRK2 and GRK5) | decrease of heart rate (heart rate; oral dose 15 mg/kg/day derived from titration pre-experiments [5/10/15mg]) | heart rate after bisoprolol (heart rate; titration pre-experiments [5/10/15mg], 15mg oral, from 236±10 bpm, n = 5, p<0.005) [bpm]
1 | CC(C)[C@H](NC(=O)[C@H](Cc1ccccc1)NC(=O)[C@H](CC(=O)O)NC(=O)[C@H](CS)NC(=O)[C@H](CS)NC(=O)[C@H](CCCCN)NC(=O)[C@@H]1CCCN1C(=O)[C@H](CC(=O)O)NC(=O)[C@H](CC(N)=O)NC(=O)[C@H](Cc1ccc(O)cc1)NC(=O)[C@H](CS)NC(=O)[C@H](CCCNC(=N)N)NC(=O)[C@H](CCCNC(=N)N)NC(=O)[C@H](C)NC(=O)[C@H](CCC(=O)O)NC(=O)[C@H](CC(=O)O)NC(=O)[C@H](CO)NC(=O)[C@H](CCC(=O)O)NC(=O)[C@H](C)NC(=O)[C@H](CCCNC(=N)N)NC(=O)[C@H](C)N)C(=O)N[C@H](C(=O)N[C@@H](CC(N)=O)C(=O)N[C@@H](CCCNC(=N)N)C(=O)NCC(N)=O)[C@@H](C)O [β1EC2-Lin] (H-ARAESDEARRCYNDPKCCDFVTNRG-NH2; N-terminus and C-terminus assumed) | 3.9 ± 2.2 |  |  |  |  | 
2 | CC(C)[C@@H]1NC(=O)[C@H](Cc2ccccc2)NC(=O)[C@H](CC(=O)O)NC(=O)[C@H](CS)NC(=O)[C@H](CS)NC(=O)[C@H](CCCCN)NC(=O)[C@@H]2CCCN2C(=O)[C@H](CC(=O)O)NC(=O)[C@H](CC(N)=O)NC(=O)[C@H](Cc2ccc(O)cc2)NC(=O)[C@H](CS)NC(=O)[C@H](CCCNC(=N)N)NC(=O)[C@H](CCCNC(=N)N)NC(=O)[C@H](C)NC(=O)[C@H](CCC(=O)O)NC(=O)[C@H](CC(=O)O)NC(=O)[C@H](CO)NC(=O)[C@H](CCC(=O)O)NC(=O)[C@H](C)NC(=O)[C@H](CCCNC(=N)N)NC(=O)[C@H](C)NC(=O)[C@H](CCC(N)=O)NC(=O)CNC(=O)[C@H](CCCNC(=N)N)NC(=O)[C@H](CC(N)=O)NC(=O)[C@H]([C@@H](C)O)NC1=O [β1EC2-CP] (cyclo(AESDEARRCYNDPKCCDFVTNRGQAR)) | 8.1 ± 2.8 | > 80 | ~10 | reverted |  | 
3 | CC(C)NCC(O)COc1ccc(COCCOC(C)C)cc1 (stereo not shown) [bisoprolol, reference compound] |  |  |  |  | at least 10% | 205±9
